Experimental data published in publication PMC6986439, “Sultiame pharmacokinetic profile in plasma and erythrocytes after single oral doses: A pilot study in healthy volunteers” (Pharmacology Research & Perspectives, 2020).

Tests used:
[1] = test system: erythrocytes; assay: In vitro competition studies with zonisamide and topiramate in whole blood; type: in vitro ADME, human; conditions: not influenced by the addition of sultiame; data not shown
Method: In addition, competition studies were performed with two other antiepileptic agents known for their affinity for CA (zonisamide and topiramate), added at equimolar concentration to 20 mg/L of sultiame. Similar ranges of inhibition constants for CA II were reported in the literature for these three substances.13 Samples (1 mL) were drawn before and at 2, 4, 6, 8, 10, 15, 20, 30, 45, 60, and 120 min after addition of the competitor. Sultiame, zonisamide, and topiramate concentrations were then analyzed. All samples were centrifuged at 18 620 g for 1 minutes at 4°C. Plasma, erythrocyte, and urine fractions were stored separately at − 80°C prior to analysis for a maximum of 9 months. For analysis, plasma and hemolyzed erythrocytes samples were subjected to protein precipitation with MeOH containing the internal‐standard sultiame D4 and quantified with the previously described HPLC‐MS/MS method, using matrix‐matched calibration and quality controls. The sultiame concentrations determined in erythrocytes were corrected for the 10% interstitial plasma remnant in the erythrocyte fraction after centrifugation.14

[2] = set-up: method as in earlier work; conditions: main metabolite identified in urines ref 8; cited from earlier work

erythrocyte/plasma ratio [1] | Compound | activity of metabolite [2]
~1 | CC1(C)O[C@@H]2[C@@H](CO[C@@]3(COS(N)(=O)=O)OC(C)(C)O[C@@H]23)O1 [topiramate] | 
 | hydroxy‐sultiame | inactive
